From publication PMC5654968 (NPJ Systems Biology and Applications, 2017)
Like-named read-outs stand apart in the source and are kept apart here.

Tests used:
[1] = Plasma PK of major maoto compounds by LC-MS/MS after oral administration of maoto; assay type: in vivo, rat
Description: 1 (7:00-19:00). Rats were maintained and used for the experiments in accordance
2 with the Guidelines for the Care and Use of Laboratory Animals of Tsumura &
3 CO. All experimental procedures were carried out upon approval from the
4 Laboratory Animal Committee of Tsumura & CO.
8 administered to 16-h fasted rats (n=3). […]
14 and 4 g/10mL/kg) were determined by LC-MS/MS. Based on a literature search,
16 amygdalin, prunasin, scopoletin, l-ephedrine, d-pseudoephedrine,
1 Plasma PK data were analyzed by noncompartmental modeling using
2 Phoenix WinNonlin (version 6.3, Certara L.P., St. Louis, MO, USA) to determine
3 various PK constants including Cmax, tmax, t1/2, and AUC0–last. The t1/2 was divided
4 by loge2/ke, where ke is the rate constant of terminal elimination (at least three
5 data points on the descending linear limb). […]

[2] = assay type: in vivo, rat
Description: Distilled water and saline were administered as vehicle to rats in each control group. […] Plasma cytokine levels were measured by ELISA or multiplex immunoassay; common metabolites and lipid mediators were analyzed by GC-MS/MS and LC-MS/MS, respectively.
Pathway maps of lipid mediators were created by using CellDesigner 4.4 software (http://www.celldesigner.org). We evaluated the effects of the treatments on specific lipid mediators and categorized them according to COX, CYP and LOX pathways by Fisher’s exact test. The proinflammatory and anti-inflammatory indices were analyzed as described by Tam et al. with modification.[22]

[3] = Sprague-Dawley, rat, plasma, po, 1 g/kg
[4] = Sprague-Dawley, rat, plasma, po, 2 g/kg
[5] = Sprague-Dawley, rat, plasma, po, 4 g/kg
[6] = PM/P (polyI:C+maoto vs polyI:C), 2h
[7] = PM/P (polyI:C+maoto vs polyI:C), 4h

| Structure (SMILES) | log2FC of plasma level ([2]; M/C (maoto vs control), 2h) | log2FC of plasma level ([2]; M/C (maoto vs control), 4h) | log2FC of plasma level ([2]; P/C (polyI:C vs control), 2h) | log2FC of plasma level ([2]; P/C (polyI:C vs control), 4h) | log2FC of plasma level [2, 6] | log2FC of plasma level [2, 7] | also measured |
| --- | --- | --- | --- | --- | --- | --- | --- |
| CC(C(O)c1ccccc1)N(C)C (racemic) [dl-Methylephedrine] | – | – | – | – | – | – | AUC(0-t) [1, 3]: 18.7 ng·h/mL; half-life [1, 3]: 358 min; Cmax ([1]; Sprague-Dawley, rat, plasma, po, 1 g/kg, read-out: Cmax): 16.6 ng/mL; Tmax ([1]; Sprague-Dawley, rat, plasma, po, 1 g/kg, read-out: Tmax): 15 min; AUC(0-t) [1, 4]: 46 ng·h/mL; half-life [1, 4]: 119 min; Cmax ([1]; Sprague-Dawley, rat, plasma, po, 2 g/kg, read-out: Cmax): 22.5 ng/mL; Tmax ([1]; Sprague-Dawley, rat, plasma, po, 2 g/kg, read-out: Tmax): 15 min; AUC(0-t) [1, 5]: 94.9 ng·h/mL; half-life [1, 5]: 690 min; Cmax ([1]; Sprague-Dawley, rat, plasma, po, 4 g/kg, read-out: Cmax): 37 ng/mL; Tmax ([1]; Sprague-Dawley, rat, plasma, po, 4 g/kg, read-out: Tmax): 15 min |
| O=c1ccc2ccc(O)cc2o1 [7-hydroxycoumarin] | – | – | – | – | – | – | detection in rat plasma by targeted LC-MS/MS ([1]; oral maoto 2 g/kg): not detected; AUClast ([1]; rat plasma, oral maoto 1 g/kg): BQL; Cmax ([1]; rat plasma, oral maoto 1 g/kg): BQL; AUClast ([1]; rat plasma, oral maoto 2 g/kg): BQL; Cmax ([1]; rat plasma, oral maoto 2 g/kg): BQL; AUClast ([1]; rat plasma, oral maoto 4 g/kg): BQL; Cmax ([1]; rat plasma, oral maoto 4 g/kg): BQL |
| CCC(O)C(O)C/C=C\C/C=C\C/C=C\C/C=C\CCCC(=O)O (stereo not drawn) [17,18-DiHETE] | 0.60 | -0.17 | 0.19 | 0.32 | -0.30 | -0.38 | – |
| CC/C=C\CC(O)/C=C/C=C\C/C=C\C/C=C\C/C=C\CCC(=O)O (stereo not drawn) [17-HDoHE] | 0.30 | -0.62 | -0.12 | 0.47 | 0.18 | -0.79 | – |
| CCCC(O)C/C=C\C/C=C\C/C=C\C/C=C\CCCC(=O)O (stereo not drawn) [17-HETE] | 0.20 | 0.07 | 0.59 | 0.13 | 0.42 | 0.16 | – |
| CCC(O)/C=C/C=C\C/C=C\C/C=C\C/C=C\CCCC(=O)O (stereo not drawn) [18-HEPE] | 0.08 | -0.59 | 0.02 | 0.07 | -0.16 | -0.77 | – |
| CCC(O)CC/C=C\C/C=C\C/C=C\C/C=C\CCCC(=O)O (stereo not drawn) [18-HETE] | 0.16 | -0.08 | 0.25 | -0.05 | -0.26 | -0.07 | – |
| CC(O)CCC/C=C\C/C=C\C/C=C\C/C=C\CCCC(=O)O (stereo not drawn) [19-HETE] | 1.44 | 0.46 | 0.66 | -0.33 | 0.46 | 0.72 | – |
| CCC(O)/C=C/C=C\C/C=C\C/C=C\C/C=C\C/C=C\CCC(=O)O (stereo not drawn) [20-HDoHE] | -0.10 | -0.54 | -0.13 | 0.44 | 0.06 | -0.71 | – |
| O=C(O)CCC/C=C\C/C=C\C/C=C\C/C=C\CCCCCO [20-HETE] | 0.51 | -0.20 | -0.23 | 0.52 | 0.70 | 0.06 | – |
| O=C(O)CCC/C=C\C/C=C\C/C=C\C/C=C\CCCCC(=O)O [20-carboxy-AA] | 0.40 | 0.17 | 0.03 | 0.32 | 0.28 | 0.00 | – |
| Oc1cc(O)c2c(c1)O[C@H](c1ccc(O)c(O)c1)[C@@H](O)C2 [(+)-Catechin] | – | – | – | – | – | – | AUClast ([1]; rat plasma, oral maoto 1 g/kg): BQL; Cmax ([1]; rat plasma, oral maoto 1 g/kg): BQL; AUClast ([1]; rat plasma, oral maoto 2 g/kg): 0.111 ng·h/mL; Cmax ([1]; rat plasma, oral maoto 2 g/kg): 0.443 ng/mL; Tmax ([1]; rat plasma, oral maoto 2 g/kg): 60 min; AUClast ([1]; rat plasma, oral maoto 4 g/kg): 1.71 ng·h/mL; Cmax ([1]; rat plasma, oral maoto 4 g/kg): 3.75 ng/mL; Tmax ([1]; rat plasma, oral maoto 4 g/kg): 15 min |
| CCCCC/C=C\C/C=C\C/C=C\C/C=C\CCCC(=O)O [AA, arachidonic acid] | 0.19 | -0.02 | 0.12 | 0.14 | -0.10 | -0.04 | – |
